{
  "source": "patent US20250008983A1",
  "about": "“COMPOSITIONS CONTAINING PEROXYACIDS TO CONTROL PATHOGEN GROWTH IN ANIMAL FEED AND RELATED METHODS” (KEMIN INDUSTRIES, INC., priority 2023, published 2025)",
  "key": {"[1]": {"experiment": "Degradation of PPA in diluted/Opticurb solutions with mild steel", "type": "physicochemical", "settings": "in contact with mild steel", "method": "Degradation of PPA in diluted/Opticurb solutions with mild steel. In another study, the solution of PPA with different diluents was measured for the peroxyacid content initially and after 1 h of immersing the […] to test the PPA degradation rate."}, "[2]": {"system": "S. enteriditis ATCC 13076", "experiment": "Cell membrane permeability, crystal violet assay", "type": "cell-based, Salmonella enteriditis", "settings": "n = 3, two hours at 37° C., ~pH 7, listed as PPA", "method": "Method. Cell membrane permeability was determined through crystal violet assay where an alteration in the outer cell membrane will result in a higher uptake of the dye, indicating a greater membrane permeability. An overnight culture of S. enteriditis ATCC 13076 in TSBYE was harvested with centrifugation at 6700 rcf for five minutes at room temperature using Eppendorf Centrifuge 5810 R. Upon aspirating the TSBYE, the cell pellets were washed with phosphate-buffered saline (PBS, pH 7.4, 10 mM) twice and resuspended in PBS. Subsequently, 0.75 mL of the cell suspension was added to 0.75 mL of the treatment (prepared in 10 mM PBS) into a two-milliliters microcentrifuge tube and incubated for two hours at 37° C. with agitation at 150 rpm. Cells without any treatments served as the negative control. After two hours of incubation, the cells were again harvested with centrifugation at 6700 rcf for five mins. Subsequently, the cells were resuspended in 10 μg/mL of crystal violet solution prepared in PBS and incubated for another 15 minutes with agitation at 150 rpm. After incubation, the suspension was centrifuged at 13,000 rcf for 15 minutes. The absorbance of the supernatant in each tube was measured at 590 nm. The percentage of dye uptake was calculated based on the ratio of absorbance values (Equation 1)."}, "[3]": {"system": "Escherichia coli ATCC 25922", "experiment": "Minimum inhibitory concentration (MIC), broth microdilution", "type": "cell-based", "method": "Materials and Methods. The assay was conducted to determine the minimum inhibitory concentration (MIC) of peroxy-acids against Escherichia coli ATCC 25922. E. coli was purchased from American Type Culture Collection (ATCC). The strain was stored at −80° C. in glycerol. Prior to usage, E. coli was revived by streaking a loopful of culture onto TSAYE (i.e., tryptone soya agar yeast extract (CM0131 and LP0021; Oxoid) prepared as per recommended by Oxoid) with overnight incubation at 37° C. An overnight culture of E. coli was diluted in TSBYE (i.e, tryptone soya broth yeast extract (CM0129; Oxoid) prepared as per recommended by Oxoid) to obtain a cell suspension of ca. 10^5 CFU/mL. Subsequently, 100 μL of the diluted culture was added to 100 μL of the test solutions at the needed concentrations into a microtiter plate (92096; TPP Techno Plastic Products AG). Peroxy-acids were tested at an active concentration of 25-1600 μg/mL. Subsequently, the inoculated plate was incubated at 37° C. up to 48 hours with the bacterial cell density recorded at optical density (OD) 600 nm at 24 hours interval using a microplate reader (Varioskan LUX; Thermo Fisher)."}, "[4]": {"system": "Salmonella enteriditis ATCC 13076", "experiment": "DNA interaction Assay 2: treatment added to cells followed by extraction", "type": "cell-based", "settings": "1 kg/T; two hours at 37° C.; n = 3", "method": "(§1) Method (Assay 1: Treatment added to extracted DNA directly). One mL of cell suspension (ca. 10^8 cfu/mL in TSBYE) was harvested by centrifugation at 5000 rcf for 10 minutes. The supernatant was discarded and resuspended as detailed in the protocol provided by the supplier. DNA was extracted using the QIAamp DNA Mini kit (Cat #51304, Qiagen). The samples were incubated at 56° C. for two hours and eluted with 200 uL of nuclease-free water. The same eluent was run through the column twice to increase the DNA concentration. Extracted DNA was quantified using Quant-iT dsDNA high-sensitivity assay kit (Q33120; Thermo Fischer Scientific). Extracted DNA was subsequently treated with the different treatment groups with a final concentration of 1 kg/T (prepared in 10 mM PBS). 1.5 uL of treatment solution (prepared at 10 times higher concentration) is added to 13.5 uL of extracted DNA. The solution was mixed well and left to stand at room temperature for one hour. After one hour, the solution was diluted with nuclease-free water 10 times. DNA was subsequently quantified using Quant-iT dsDNA high-sensitivity assay kit (Q33120; Thermo Fischer Scientific). Method (Assay 2: Treatment added to cells followed by extraction). […] Extracted DNA was quantified using Quant-iT dsDNA high-sensitivity assay kit (Q33120; Thermo Fischer Scientific). […]"}, "extracted Salmonella DNA": {"system": "extracted Salmonella DNA", "experiment": "DNA interaction Assay 1: treatment added to extracted DNA directly", "type": "biochemical", "settings": "1 kg/T; one hour at room temperature; n = 3", "method": "as §1"}, "[5]": {"settings": "2.5% ammonium hydroxide, after 15 minutes"}, "[6]": {"settings": "2.5% ammonium hydroxide, after 60 minutes"}, "[7]": {"settings": "5% sodium hydroxide, after 15 minutes"}, "[8]": {"settings": "5% sodium hydroxide, after 60 minutes"}, "[9]": {"settings": "Sodium phosphate buffer, after 15 minutes"}, "[10]": {"settings": "Sodium phosphate buffer, after 60 minutes"}},
  "note": "“And” between values parts separate entries of the source, which are not always exact repeats. Equal entries are not always repeated. Marks after values point to notes of the source that are not given here.",
  "data": [
    {"molecule": "CCC(=O)OO", "note": "[Perpropionic acid, perpropionic acid]", "values": [
      {"measurement": "PPA degradation/min", "setting": "[1]; 2.5% ammonium hydroxide", "value": 1.10, "unit": "%"},
      {"measurement": "H2O2 (%)", "setting": "[1]; [5]", "value": 0.77, "unit": "%"},
      {"measurement": "PPA (%)", "setting": "[1]; [5]", "value": 2.03, "unit": "%"},
      {"measurement": "H2O2 (%)", "setting": "[1]; [6]", "value": 0.44, "unit": "%"},
      {"measurement": "PPA (%)", "setting": "[1]; [6]", "value": 0.97, "unit": "%"},
      {"measurement": "PPA degradation/min", "setting": "[1]; 5% sodium hydroxide", "value": 1.16, "unit": "%"},
      {"measurement": "H2O2 (%)", "setting": "[1]; [7]", "value": 0.9, "unit": "%"},
      {"measurement": "PPA (%)", "setting": "[1]; [7]", "value": 2.93, "unit": "%"},
      {"measurement": "H2O2 (%)", "setting": "[1]; [8]", "value": 0.37, "unit": "%"},
      {"measurement": "PPA (%)", "setting": "[1]; [8]", "value": 1.48, "unit": "%"},
      {"measurement": "H2O2 (%)", "setting": "[1]; [9]", "value": 1.67, "unit": "%"},
      {"measurement": "PPA (%)", "setting": "[1]; [9]", "value": 5.27, "unit": "%"},
      {"measurement": "H2O2 (%)", "setting": "[1]; [10]", "value": 1.6, "unit": "%"},
      {"measurement": "PPA (%)", "setting": "[1]; [10]", "value": 4.67, "unit": "%"},
      {"measurement": "PPA degradation after an hour", "setting": "[1]; ammonium hydroxide (2.5% wt)", "value": 50, "unit": "%"},
      {"measurement": "PPA degradation after an hour", "setting": "[1]; sodium hydroxide (5% wt.)", "value": 52, "unit": "%"},
      {"measurement": "PPA degradation after an hour", "setting": "[1]; sodium phosphate buffer", "value": "~11", "unit": "%"},
      {"measurement": "PPA degradation/min", "setting": "[1]; sodium phosphate buffer", "value": 0.25, "unit": "%"},
      {"measurement": "Dye uptake, Average ± SD", "setting": "[2]; 1 kg/T", "value": "67.32% and 67.32 ± 0.80^d %"},
      {"measurement": "Dye uptake, Average ± SD", "setting": "[2]; 2.5 kg/T", "value": "83.82% and 83.82 ± 0.78^e %"},
      {"measurement": "Dye uptake, Average ± SD", "setting": "[2]; 5 kg/T", "value": "88.27% and 88.27 ± 0.42^f %"},
      {"measurement": "Minimum inhibitory concentration (μg/mL) against E. coli", "setting": "[3]; no increment in OD over 48 hours, 37° C.", "value": 500, "unit": "µg/mL"},
      {"measurement": "MIC", "setting": "[3]; preliminary results", "value": 500, "unit": "ppm"},
      {"measurement": "DNA concentration, Average ± SD, Assay 2", "setting": "[4]", "value": "34.97 ± 4.54^a ng/uL"},
      {"measurement": "DNA concentration, Average ± SD, Assay 1", "setting": "extracted Salmonella DNA", "value": "42.8 ± 2.9^b ng/uL"}
    ]}
  ]
}
